Where two headings read alike, the source gives them in different places.

One experiment has as its system MRSA USA300. Briefly: Spread agar plates, photoinactivation of catalase with silver cation. The format is cell-based, methicillin-resistant Staphylococcus aureus.
Experiment [1] deals with E. coli BW25113. Briefly: CFU, photoinactivation of catalase with silver cation. The format is cell-based, Escherichia coli. To be noted: 30 and 60 minutes.
The subject of experiment [2] is Enterococcus faecalis NR-31970. Briefly: CFU test of synergy between photoinactivation of catalase and ROS-generating antibiotics (catalase-negative control). Format: cell-based. To be noted: ns-410 nm plus tobramycin 2 μg/ml, 4-hour incubation; catalase-negative strain. The procedure:
(§1) Then prior to any treatments, the above solution was incubated with antibiotics (10 μg/ml) for 1 hour. For each bacterial strain, four groups were tested: untreated one, ns-410 nm-treated group, antibiotic (2 μg/ml)-treated group, ns-410 nm plus antibiotic (2 μg/ml)-treated group. Dose for ns-410 nm exposure was 15 J/cm2.

The subject of experiment [3] is E. coli BW25113. Briefly: CFU test of synergy between photoinactivation of catalase and ROS-generating antibiotics. The format is cell-based, Escherichia coli. To be noted: ns-410 nm (15 J/cm2) plus tobramycin 2 μg/ml, 4-hour incubation. The procedure:
as §1

Experiment [4] deals with stationary-phase MRSA USA300. The text has this:
(§2) CFU experiments to test the potential synergy between photoinactivation of catalase and H2O2: Overnight-cultured bacteria was centrifuged, the supernatant was discarded, and the pellet was resuspended with the same amount of PBS. The laser source used in the study is nanosecond (ns) pulsed OPO laser purchased from OPOTEK Inc, model number as Opolette HE355 LD, having the following key specifications: wavelength range, 410-2400 nm; pulse repetition rate, 20 Hz; maximum pulse energy at 460 nm, 8 mJ; pulse duration, 5 nanosecond; spectral linewidth, 4-6 cm-1; and pulse-to-pulse stability, <5%. For each bacterial strain there were four groups: untreated one, ns-410 nm-treated group, H2O2 (22 or 44 mM)-treated group, ns-410 nm plus H2O2 (22 or 44 mM)-treated group. Dose for ns-410 nm exposure was 15 J/cm^2. H2O2 was incubated with bacteria for 30 min at 37° C. with the shaking speed of 200 rpm. After incubation, bacterial burden from each group was serial diluted, inoculated onto TSA plates, then counted by enumeration of these plates.

For experiment [5], the system named is stationary-phase Pseudomonas aeruginosa.
Text: as §2

A further experiment relates to Salmonella enterica. To be noted: ns-410 nm combined with H2O2 22 mM.
Text: as §2

The next experiment concerns CASC5314. The note with it: 410 nm plus low-concentration H2O2; log-phase or stationary-phase. The procedure: (§3) PrestoBlue viability assay: First log-phase fungal pathogens were prepared by diluting overnight-cultured fungal pathogens into fresh YPD broth at a ratio of 1:50 and cultured for another 2-3 hours at 30 C with the shaking speed of 200 rpm. After that, the fungal concentration was adjusted to be around 1×10^8 cells/ml by centrifuging or further dilution with PBS. 10 μl of the above fungal solution was exposed to 410 nm for 5 min (150 mW/cm^2). After that, the exposed sample was collected into 990 μl of sterile PBS, then supplemented with treatment agents. Aliquots were made from the above sample into a 96-well plate, with each well containing 100 μl. Then 100 μl sterile YPD broth and 23 μl of PrestoBlue were added into the same well. Fluorescence signal at 590 nm from each well was recorded in a time-course (up to 18 hours with the interval of 30 min) manner at an excitation of 560 nm. For each strain, in order to know the exact number of fungal pathogens in each well, the corresponding fluorescence signals were recorded from fungal pathogens with known numbers, however no external treatments.

Another experiment relates to clinical fungal isolates. To be noted: 410 nm plus H2O2; more than twenty different clinical fungal isolates. The procedure: as §3
The test system of a further experiment is Candida albicans SC5314. The procedure:
CFU test to quantify the treatment efficacy: Quantification of antifungal treatment schemes were achieved as following: overnight cultured fungal specimen was washed by sterile PBS. And log-phase fungal pathogens were prepared by dilution into fresh YPD broth at a ratio of 1:50 and cultured for another 2-3 hours at 30° C. with the shaking speed of 200 rpm. After that, the fungal concentration was adjusted to be around 1×10^8 cells/ml by centrifuging or further dilution with PBS. 10 μl of the above fungal solution was exposed to 410 nm for 5 min (150 mW/cm^2). After that, the exposed sample was collected into 990 μl of sterile PBS, then supplemented with treatment agents. Later, CFU of fungal cells was enumerated by serial dilution and cultured in YPD agar plates for 48 hours.

A further experiment concerns C. auris strains. Briefly: PrestoBlue viability assay, amp B. The format is cell-based, Candida auris.
Where [6] appears, read: H2O2 22 mM after photoinactivation of catalase (15 J/cm2).

With `[Ag+]` [silver cation], in the experiment with MRSA USA300 (ns-410 nm combined with 10 μM silver cation, one hour after treatment), the MRSA eliminated result is listed as “about 90%”. Besides, in the experiment on MRSA USA300 (silver cation alone), the antimicrobial effect entry is listed as “does not exert any significant antimicrobial effect”. The “killing effect (CFU ml-1)” value with E. coli BW25113 [1] (0.5 μM Ag+ alone) is “doesn't exert any significant killing effect”. Besides, the “reduction of bacterial burden” value in the experiment with E. coli BW25113 [1] (CW-410 (22 J/cm^2) combined with 0.5 μM Ag+) is reported as “didn't significantly reduce bacterial burden”; with E. coli BW25113 [1] (ns-410 (22 J/cm^2) in combination with 0.5 μM Ag+) it was “around 99%”.

On to `NC[C@H]1O[C@H](O[C@H]2[C@H](O)[C@@H](O[C@H]3O[C@H](CO)[C@@H](O)[C@H](N)[C@H]3O)[C@H](N)C[C@@H]2N)[C@H](N)C[C@@H]1O` [tobramycin, Tobramycin], for which the “enhanced killing effect in combination-treated group” value in experiment [2] is given as “did not produce any enhanced killing effect”. The “enhancement of killing in combination-treated group” value in the experiment on E. coli BW25113 [3] is reported as “More than 100 times”.

For `OO` [H2O2, hydrogen peroxide], the “killing efficacy, ns-410 nm plus H2O2 compared to CW-410 nm plus H2O2” value in [4] (FIG. 6) and in [5] (FIG. 6) was “significantly more effective” throughout. Moreover, the “reduction of bacterial burden” value in experiment [4] (setting [6]) was ≥ 3 log 10 reduction; in experiment [4] (ns-410 nm (15 J/cm2) in combination with H2O2 22 mM), “approximately four”; in experiment [4] (ns-430 nm combined with H2O2 22 mM), “around 99%”; in [4] (ns-450 or ns-460 nm combined with H2O2 22 mM), “around 90%”; in experiment [4] (ns-470 nm combined with H2O2 22 mM), “around 50%”; in experiment [5] (setting [6]) it was ≥ 3 log 10 reduction. Besides, the antimicrobial effect result in experiment [4] (ns-480 nm combined with H2O2 22 mM) was “barely exerts an antimicrobial effect”. In addition, the eradication entry in experiment [5] (H2O2 22 mM combined with 410 nm exposure (15 J/cm2)) is “total eradication”; in the experiment on Candida albicans SC5314 (ns-410, ns-420 or ns-430 combined with H2O2 44 mM), “total eradication”. In experiment [5] (H2O2 alone, 22 mM), the “antimicrobial effect (CFU ml-1)” value is recorded as “didn't exert any significant antimicrobial effect”. In addition, the enhanced killing effect entry in the experiment with Salmonella enterica is recorded as “around five”. For the same compound, the “effect of photoinactivation of catalase on killing by H2O2 (PrestoBlue fluorescence)” value in the experiment with CASC5314 is “always boosts the killing effect”. In the experiment with clinical fungal isolates, the “killing by synergistic therapy (PrestoBlue)” value is “significant killing was consistently found”. Also, the “enhancement of the function of H2O2 after photoinactivation of catalase” value in the experiment on Candida albicans SC5314 (410 nm exposure then H2O2, FIG. 11) was “more than five”. In addition, the “killing effect (CFU ml-1)” value in the experiment with Candida albicans SC5314 (H2O2 alone, 44 mM (0.15%), 1.5-hour incubation, stationary-phase) is given as “doesn't exert significant killing effect”. In addition, the “eradication (time-killing, CFU)” value in the experiment with Candida albicans SC5314 (low-concentration H2O2 after 410 nm exposure, FIG. 11) is listed as “eradication was achieved”. The “reduction of fungal burden” value in the experiment with Candida albicans SC5314 (ns-450 or ns-480 nm combined with H2O2 44 mM) is “reduced a similar amount of fungal burden as H2O2-alone”. In addition, in the experiment on Candida albicans SC5314 (ns-light (24 J/cm^2) in combination with H2O2 44 mM), the reduction of burden entry is given as “around four”.

In the case of `C[C@@H]1[C@H](O)[C@@H](C)/C=C/C=C/C=C/C=C/C=C/C=C/C=C/[C@H](O[C@@H]2O[C@H](C)[C@@H](O)[C@H](N)[C@@H]2O)C[C@@H]2O[C@](O)(C[C@@H](O)C[C@@H](O)[C@H](O)CC[C@@H](O)C[C@@H](O)CC(=O)O[C@H]1C)C[C@H](O)[C@H]2C(=O)O` [amp B, amphotericin B], the “eradication (PrestoBlue fluorescence)” value in the experiment with C. auris strains (410 nm plus amp B, same result with 410 nm without amp B, ten strains) is listed as “total eradication”. Also, in the experiment on C. auris strains (amp B alone, without photoinactivation of catalase), the “susceptibility (PrestoBlue fluorescence)” value was “some C. auris strains were resilient”.
